PMC12914920, “Novel glycine amides, semicarbazides and fluoroallylamines as inhibitors of the amine oxidase vascular adhesion protein-1 (VAP-1)” (RSC Medicinal Chemistry, 2026)

Target: T1, VAP-1 in human plasma (Homo sapiens, UniProt Q16853)
T1 construct: from tissue; host or cells: human whole plasma from donated blood (Münster University Hospital)
T1 sequence (Q16853 27-763 limits assumed): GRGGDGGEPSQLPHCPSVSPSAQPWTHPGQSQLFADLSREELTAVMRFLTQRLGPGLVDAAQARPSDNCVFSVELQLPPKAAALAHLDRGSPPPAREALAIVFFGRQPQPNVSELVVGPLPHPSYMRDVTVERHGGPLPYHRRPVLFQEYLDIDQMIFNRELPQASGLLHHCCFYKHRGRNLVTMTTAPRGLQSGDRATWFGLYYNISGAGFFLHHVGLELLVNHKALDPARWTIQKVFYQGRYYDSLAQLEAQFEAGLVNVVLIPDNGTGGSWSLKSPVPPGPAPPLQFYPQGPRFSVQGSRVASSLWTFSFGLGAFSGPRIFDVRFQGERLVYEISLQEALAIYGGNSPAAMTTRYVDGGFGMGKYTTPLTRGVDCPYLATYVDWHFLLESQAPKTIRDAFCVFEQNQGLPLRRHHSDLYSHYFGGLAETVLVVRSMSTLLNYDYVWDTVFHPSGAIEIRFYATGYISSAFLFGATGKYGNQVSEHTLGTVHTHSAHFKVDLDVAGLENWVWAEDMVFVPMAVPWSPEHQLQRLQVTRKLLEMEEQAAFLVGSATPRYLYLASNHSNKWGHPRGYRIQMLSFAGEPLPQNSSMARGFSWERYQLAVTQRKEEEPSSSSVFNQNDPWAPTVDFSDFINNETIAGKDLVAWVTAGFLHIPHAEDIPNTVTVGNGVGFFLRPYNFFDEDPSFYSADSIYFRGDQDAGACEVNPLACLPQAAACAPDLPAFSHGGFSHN
Assay: Inhibition of VAP-1 activity in human whole plasma
Format: biochemical
Details: 15 min pre-incubation of enzyme and inhibitor

IC50: 320 nM
Compound: N#Cc1ccc(-c2nnn(Cc3cccc(CNC(=O)CN)c3)n2)cc1 [Compound 63]
